Measurements as given in the supplement of paper PMC10331698.
± gives the standard deviation of the averaged measurements.

Legend:
Assay in all cases: level (log10 ratio to DMSO vehicle control); higher = higher biomarker level / cell amount than vehicle control
Details in all cases: in DMSO
1H,1H-Heptafluorobutanol = compound: OCC(F)(F)C(F)(F)C(F)(F)F [1H,1H-Heptafluorobutanol]
Experimental: (§1)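 BioMAP Diversity Plus panel of 12 human primary cell co-culture systems (3C, 4H, LPS, SAg, BT, BF4T, BE3C, CASM3C, HDF3CGF, KF3CT, MyoF, Mphg). Compounds were added 1 h before stimulation and left for 24 h (MyoF 48 h; BT 72 h for soluble read-outs or 6 d for IgG). Biomarkers were read by ELISA, cytotoxicity by SRB, PBMC viability and proliferation by Alamar Blue. Each well value was divided by the mean of 8 DMSO control wells on the same plate and log10 transformed; duplicate blinded samples were tested at 4 concentrations.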

Perfluorooctanamidine = compound: N=C(N)C(F)(F)C(F)(F)C(F)(F)C(F)(F)C(F)(F)C(F)(F)C(F)(F)F [Perfluorooctanamidine]
Experimental: as §1

[1] = compound: CC(C)(C)C(=O)CC(=O)C(F)(F)C(F)(F)C(F)(F)F [(Heptafluorobutanoyl)pivaloylmethane]
Experimental: as §1

[2] = compound: OCC(F)(F)C(F)(F)C(F)(F)C(F)(F)C(F)(F)C(F)F [1H,1H,7H-Dodecafluoro-1-heptanol]
Experimental: as §1

[3] = compound: O=C(O)C(F)(F)C(F)(F)C(F)(F)C(F)(F)C(F)(F)C(F)(F)C(F)(F)C(F)(F)Cl [9-Chloro-perfluorononanoic acid]
Experimental: as §1

Perfluorooctanamide = compound: NC(=O)C(F)(F)C(F)(F)C(F)(F)C(F)(F)C(F)(F)C(F)(F)C(F)(F)F [Perfluorooctanamide]
Experimental: as §1

[4] = compound: O=P(O)(O)CCC(F)(F)C(F)(F)C(F)(F)C(F)(F)C(F)(F)C(F)(F)C(F)(F)C(F)(F)F [((Perfluorooctyl)ethyl)phosphonic acid]
Experimental: as §1

| Test System | level (log10) (1H,1H-Heptafluorobutanol; 6700 nM) | level (log10) (1H,1H-Heptafluorobutanol; 20000 nM) | level (log10) (1H,1H-Heptafluorobutanol; 60000 nM) | level (log10) (Perfluorooctanamidine; 6700 nM) | level (log10) (Perfluorooctanamidine; 20000 nM) | level (log10) (Perfluorooctanamidine; 60000 nM) | level (log10) ([1]; 6700 nM) | level (log10) ([1]; 20000 nM) | level (log10) ([1]; 60000 nM) | level (log10) ([2]; 6700 nM) | level (log10) ([2]; 20000 nM) | level (log10) ([2]; 60000 nM) | level (log10) ([3]; 6700 nM) | level (log10) ([3]; 20000 nM) | level (log10) (Perfluorooctanamide; 6700 nM) | level (log10) (Perfluorooctanamide; 20000 nM) | level (log10) (Perfluorooctanamide; 60000 nM) | level (log10) ([4]; 6700 nM) | level (log10) ([4]; 20000 nM) | level (log10) ([4]; 60000 nM) |
| --- | --- | --- | --- | --- | --- | --- | --- | --- | --- | --- | --- | --- | --- | --- | --- | --- | --- | --- | --- | --- |
| SAg:CCL2/MCP-1 | 0.0075 ± 0.019 | 0.0065 ± 0.025 | 0.008 ± 0.05 | -0.004 ± 0.0014 | 0.0225 ± 0.005 | -0.015 | -0.005 | -0.0155 ± 0.0035 | -0.0085 ± 0.05 | 0.0005 ± 0.005 | -0.0035 ± 0.00071 | 0.0225 ± 0.029 | 0.017 ± 0.021 | -0.0055 ± 0.005 | -0.008 ± 0.021 | -0.02 ± 0.018 | -0.0085 ± 0.042 | 0.006 ± 0.0042 | 0.004 ± 0.016 | -0.0195 ± 0.053 |
| 4H:CD106/VCAM-1 | 0 ± 0.03 | 0.0325 ± 0.023 | 0.027 ± 0.048 | 0.0015 ± 0.011 | -0.028 ± 0.016 | -0.132 | -0.0175 ± 0.019 | 0.021 ± 0.045 | -0.032 ± 0.03 | 0.009 ± 0.034 | -0.016 ± 0.0085 | -0.0125 ± 0.0092 | -0.0145 ± 0.0078 | 0.0035 ± 0.013 | -0.023 | -0.0235 ± 0.0035 | -0.01 ± 0.03 | 0.011 ± 0.0099 | -0.0095 ± 0.016 | -0.002 ± 0.0028 |
| 3C:CXCL8/IL-8 | 0.0005 ± 0.067 | -0.0055 ± 0.079 | 0.0185 ± 0.093 | 0.018 ± 0.011 | 0.022 ± 0.0085 | 0.08 | -0.015 ± 0.011 | -0.007 ± 0.045 | 0.016 ± 0.079 | 0.0125 ± 0.032 | 0.0115 ± 0.021 | 0.0265 ± 0.0064 | 0.005 ± 0.037 | 0.0235 ± 0.063 | -0.013 ± 0.0042 | 0.002 ± 0.031 | 0.047 ± 0.021 | 0.0315 ± 0.019 | 0.03 ± 0.018 | 0.0685 ± 0.0092 |
| BE3C:HLA-DR | -0.0035 ± 0.0021 | 0.0105 ± 0.00071 | 0.02 ± 0.03 | -0.0015 ± 0.018 | -0.003 ± 0.021 | -0.01 | 0.0115 ± 0.0021 | 0.01 ± 0.0042 | -0.017 ± 0.0057 | 0.0155 ± 0.032 | -0.0015 ± 0.042 | -0.0095 ± 0.015 | -0.0575 ± 0.025 | -0.445 ± 0.052 | 0.001 ± 0.017 | -0.0035 ± 0.0078 | 0.0025 ± 0.0092 | -0.025 ± 0.0099 | -0.031 ± 0.013 | -0.0075 ± 0.013 |
| 4H:CD62P/P-selectin | 0.0195 ± 0.064 | -0.007 ± 0.14 | 0.044 ± 0.15 | -0.0165 ± 0.012 | -0.007 ± 0.0085 | -0.032 | -0.045 ± 0.089 | -0.032 ± 0.078 | -0.076 ± 0.16 | -0.003 ± 0.078 | 0.051 ± 0.067 | 0.032 ± 0.016 | -0.001 ± 0.065 | 0.0815 ± 0.023 | -0.0005 ± 0.0078 | -0.0225 ± 0.022 | -0.02 ± 0.024 | -0.0285 ± 0.019 | -0.0235 ± 0.015 | -0.126 ± 0.022 |
| BE3C:CXCL10/IP-10 | 0.0345 ± 0.023 | 0.0195 ± 0.035 | 0.0265 ± 0.032 | 0.0045 ± 0.023 | -0.0055 ± 0.0035 | 0.003 | 0.006 ± 0.024 | -0.0025 ± 0.022 | -0.0055 ± 0.019 | 0.0055 ± 0.028 | 0.004 ± 0.021 | 0.0125 ± 0.012 | -0.0545 ± 0.015 | -0.462 ± 0.011 | -0.0025 ± 0.028 | -0.005 ± 0.0071 | -0.0135 ± 0.015 | -0.0055 ± 0.0064 | -0.001 ± 0.0099 | -0.0045 ± 0.0078 |
| LPS:CD62E/E-Selectin | 0.0035 ± 0.013 | 0.001 ± 0.013 | -0.0035 ± 0.0092 | 0.0135 ± 0.00071 | -0.009 ± 0.013 | 0.019 | -0.0025 ± 0.005 | -0.0145 ± 0.021 | 0.004 ± 0.0042 | 0.0045 ± 0.0064 | -0.005 ± 0.013 | -0.009 ± 0.014 | -0.0095 ± 0.033 | 0.034 ± 0.0057 | -0.002 ± 0.014 | -0.001 ± 0.011 | 0.0205 ± 0.0078 | 0.0085 ± 0.018 | -0.0145 ± 0.015 | -0.012 ± 0.0057 |
| BF4T:MMP-9 | -0.03 ± 0.038 | -0.001 ± 0.011 | -0.0145 ± 0.0021 | -0.006 ± 0.0057 | -0.0115 ± 0.013 | 0.053 | -0.009 ± 0.042 | 0.0205 ± 0.029 | 0.033 ± 0.0014 | -0.0055 ± 0.03 | -0.011 ± 0.027 | 0.0095 ± 0.046 | -0.0395 ± 0.036 | -0.0715 ± 0.019 | -0.0065 ± 0.011 | 0.0015 ± 0.039 | -0.031 ± 0.048 | -0.014 ± 0.0014 | -0.014 ± 0.011 | 0.0305 ± 0.021 |
| BF4T:IL-1alpha | -0.0125 ± 0.0092 | -0.016 | -0.007 ± 0.0042 | -0.003 ± 0.0085 | -0.017 ± 0.0014 | 0.042 | 0.007 ± 0.011 | -0.0225 ± 0.011 | -0.028 ± 0.017 | -0.006 ± 0.024 | -0.006 ± 0.0099 | -0.0085 ± 0.012 | 0.0205 ± 0.0035 | -0.023 ± 0.011 | 0.008 ± 0.0099 | 0.003 ± 0.017 | -0.001 ± 0.024 | -0.0165 ± 0.015 | -0.001 ± 0.0028 | 0.015 ± 0.02 |
| SAg:CXCL8/IL-8 | 0.012 ± 0.0085 | -0.0055 ± 0.0021 | -0.0045 ± 0.1 | 0.005 ± 0.018 | 0.023 ± 0.0085 | -0.022 | -0.0195 ± 0.046 | -0.062 ± 0.024 | -0.098 ± 0.14 | 0.025 ± 0.0028 | 0.008 ± 0.0071 | 0.037 ± 0.038 | 0.0125 ± 0.0078 | 0.0445 ± 0.0092 | -0.019 ± 0.041 | -0.0255 ± 0.0021 | 0.056 | 0.022 ± 0.023 | 0.037 ± 0.03 | 0.052 ± 0.011 |
| BT:B cell Proliferation | 0.0265 ± 0.0078 | -0.0155 ± 0.026 | -0.016 ± 0.075 | -0.0005 ± 0.011 | -0.002 ± 0.017 | -0.086 | 0.007 ± 0.0099 | 0.007 ± 0.028 | 0.033 ± 0.0057 | -0.014 ± 0.0028 | -0.035 ± 0.0014 | -0.04 ± 0.02 | 0.04 ± 0.038 | 0.037 ± 0.017 | 0.013 ± 0.024 | 0.0055 ± 0.00071 | -0.028 ± 0.054 | 0.014 ± 0.021 | -0.0325 ± 0.044 | -0.136 ± 0.058 |
| SAg:CD62E/E-Selectin | 0.003 ± 0.013 | 0.01 ± 0.038 | 0.0125 ± 0.053 | 0.004 ± 0.0014 | 0.0265 ± 0.00071 | -0.049 | -0.003 ± 0.042 | -0.0235 ± 0.005 | -0.106 ± 0.04 | -0.0075 ± 0.0021 | -0.0205 ± 0.013 | -0.02 ± 0.0057 | -0.017 ± 0.0042 | 0.017 ± 0.014 | -0.0135 ± 0.035 | -0.0265 ± 0.00071 | 0.0145 ± 0.0092 | 0.0135 ± 0.0021 | 0.0275 ± 0.019 | -0.0155 ± 0.03 |
| 4H:SRB | -0.005 ± 0.0071 | -0.0005 ± 0.013 | 0.0065 ± 0.005 | 0.0035 ± 0.0021 | -0.006 ± 0.0071 | -0.029 | -0.007 ± 0.0014 | -0.005 ± 0.0071 | -0.0095 ± 0.016 | -0.0055 ± 0.028 | -0.0215 ± 0.012 | -0.0075 ± 0.029 | -0.0015 ± 0.00071 | -0.0055 ± 0.0035 | -0.0005 ± 0.005 | -0.008 ± 0.0057 | 0.0085 ± 0.028 | -0.0005 ± 0.0064 | 0.0025 ± 0.022 | -0.055 ± 0.052 |
| SAg:CD69 | -0.013 ± 0.017 | -0.0035 ± 0.016 | 0.02 ± 0.016 | 0.006 ± 0.03 | -0.0035 ± 0.019 | -0.036 | -0.027 ± 0.023 | -0.023 ± 0.02 | -0.007 ± 0.014 | -0.004 ± 0.013 | -0.0015 ± 0.021 | -0.002 ± 0.016 | -0.0405 ± 0.043 | -0.035 ± 0.028 | -0.002 ± 0.028 | 0.0025 ± 0.013 | -0.0065 ± 0.023 | -0.01 ± 0.017 | -0.016 ± 0.05 | -0.006 ± 0.052 |
| SAg:CD38 | -0.028 ± 0.064 | -0.0145 ± 0.015 | -0.0115 ± 0.088 | 0.009 ± 0.017 | 0.001 ± 0.013 | -0.074 | 0.0075 ± 0.097 | 0.017 ± 0.065 | -0.0125 ± 0.00071 | 0.0005 ± 0.013 | 0.0105 ± 0.019 | 0.0075 ± 0.022 | -0.02 ± 0.021 | -0.0315 ± 0.028 | 0.0005 ± 0.005 | 0.0085 ± 0.028 | 0.003 ± 0.018 | -0.015 ± 0.024 | -0.0155 ± 0.005 | -0.0945 ± 0.023 |
